Values quoted from earlier work as cited in patent US20140163109A1, “TASTE-MASKED IBUPROPEN GRANULES” (GLATT AG, priority 2012, published 2014).

solubility in water: poorly soluble in water
Compound: CC(C)Cc1ccc(C(C)C(=O)O)cc1 (racemic) [Ibuprofen, (±)-2-(4-isobutylphenyl) propionic acid]
